The source of these data is ChEMBL document CHEMBL3217607, “Discovery and structural modification of novel inhibitors of PTP1B inspired by the ACT fragment of scleritodermin A” (Medchemcomm, 2011).

Experiment [1] addresses T1, Tyrosine-protein phosphatase non-receptor type 1 (Homo sapiens, UniProt P18031).
T1 sequence (P18031 whole entry): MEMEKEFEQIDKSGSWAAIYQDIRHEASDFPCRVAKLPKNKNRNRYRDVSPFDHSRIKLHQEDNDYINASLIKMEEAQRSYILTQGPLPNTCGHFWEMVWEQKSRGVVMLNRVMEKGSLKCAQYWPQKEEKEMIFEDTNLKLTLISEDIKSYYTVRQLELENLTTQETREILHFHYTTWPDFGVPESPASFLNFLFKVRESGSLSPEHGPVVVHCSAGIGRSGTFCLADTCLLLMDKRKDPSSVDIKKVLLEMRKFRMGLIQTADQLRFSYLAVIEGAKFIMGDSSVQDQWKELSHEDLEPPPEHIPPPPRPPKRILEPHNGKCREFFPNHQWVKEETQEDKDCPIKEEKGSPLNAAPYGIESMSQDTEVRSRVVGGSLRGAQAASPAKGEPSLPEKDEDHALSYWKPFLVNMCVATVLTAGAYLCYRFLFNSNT
Put plainly: Inhibition of GST-tagged PTP1B (unknown origin) using pNPP as substrate measured for 2 mins by spectrophotometry.

The target of experiment [2] is T2, Tyrosine-protein phosphatase non-receptor type 2 (Homo sapiens, UniProt P17706).
T2 sequence (P17706 whole entry): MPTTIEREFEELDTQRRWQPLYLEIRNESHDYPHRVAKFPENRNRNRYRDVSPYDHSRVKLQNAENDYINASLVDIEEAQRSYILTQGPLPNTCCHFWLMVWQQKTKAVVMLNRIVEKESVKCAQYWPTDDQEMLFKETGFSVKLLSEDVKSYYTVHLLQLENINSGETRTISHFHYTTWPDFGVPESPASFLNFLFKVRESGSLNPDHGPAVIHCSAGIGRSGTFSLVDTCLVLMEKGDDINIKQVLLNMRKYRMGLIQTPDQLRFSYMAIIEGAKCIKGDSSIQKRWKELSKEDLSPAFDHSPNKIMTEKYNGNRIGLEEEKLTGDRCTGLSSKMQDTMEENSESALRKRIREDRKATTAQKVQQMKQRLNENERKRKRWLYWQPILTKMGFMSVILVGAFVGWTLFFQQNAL
The experiment can be described thus: Inhibition of TCPTP (unknown origin).

The target in experiment [3] is T3, Tyrosine-protein phosphatase non-receptor type 11 (Homo sapiens, UniProt Q06124).
T3 sequence (Q06124 whole entry): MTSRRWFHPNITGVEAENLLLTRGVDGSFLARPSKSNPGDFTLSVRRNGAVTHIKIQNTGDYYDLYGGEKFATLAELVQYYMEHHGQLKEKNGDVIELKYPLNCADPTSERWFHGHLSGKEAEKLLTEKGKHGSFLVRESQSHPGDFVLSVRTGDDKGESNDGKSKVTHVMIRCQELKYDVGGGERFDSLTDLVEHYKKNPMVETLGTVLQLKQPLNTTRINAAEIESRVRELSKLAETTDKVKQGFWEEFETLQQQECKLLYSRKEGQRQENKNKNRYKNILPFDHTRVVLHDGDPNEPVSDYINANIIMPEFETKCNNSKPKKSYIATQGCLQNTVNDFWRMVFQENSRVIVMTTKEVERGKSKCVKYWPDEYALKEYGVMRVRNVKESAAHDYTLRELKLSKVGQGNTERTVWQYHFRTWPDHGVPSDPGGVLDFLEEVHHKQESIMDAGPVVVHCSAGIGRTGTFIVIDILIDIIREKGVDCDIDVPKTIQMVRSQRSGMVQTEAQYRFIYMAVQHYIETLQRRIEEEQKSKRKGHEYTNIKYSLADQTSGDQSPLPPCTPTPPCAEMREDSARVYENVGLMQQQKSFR
The experiment can be described thus: Inhibition of SHP2 (unknown origin) using 3-O-Methylfluorescein phosphate as substrate preincubated for 3 mins followed by substrate addition.

The target in experiment [4] is Receptor-type tyrosine-protein phosphatase F (Homo sapiens, UniProt P10586). Put plainly: Inhibition of LAR (unknown origin) using 3-O-Methylfluorescein phosphate as substrate preincubated for 3 mins followed by substrate addition.
Experiment [5] has as its target T4, M-phase inducer phosphatase 2 (Homo sapiens, UniProt P30305).
T4 sequence (P30305 whole entry): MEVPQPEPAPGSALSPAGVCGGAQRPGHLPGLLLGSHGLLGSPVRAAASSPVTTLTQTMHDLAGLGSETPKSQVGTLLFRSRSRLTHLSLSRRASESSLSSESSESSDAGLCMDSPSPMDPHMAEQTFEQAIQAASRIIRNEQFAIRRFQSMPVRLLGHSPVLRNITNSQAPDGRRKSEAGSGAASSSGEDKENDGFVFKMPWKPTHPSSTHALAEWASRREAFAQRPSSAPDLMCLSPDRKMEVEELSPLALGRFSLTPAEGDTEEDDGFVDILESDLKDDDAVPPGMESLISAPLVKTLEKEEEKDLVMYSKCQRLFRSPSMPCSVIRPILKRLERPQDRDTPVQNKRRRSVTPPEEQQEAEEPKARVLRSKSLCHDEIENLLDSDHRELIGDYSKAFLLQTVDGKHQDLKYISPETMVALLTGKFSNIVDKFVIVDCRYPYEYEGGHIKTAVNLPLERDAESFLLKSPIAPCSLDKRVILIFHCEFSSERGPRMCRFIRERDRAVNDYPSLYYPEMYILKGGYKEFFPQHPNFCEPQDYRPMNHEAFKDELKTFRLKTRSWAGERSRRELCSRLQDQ
Put plainly: Inhibition of CDC25B (unknown origin) using 3-O-Methylfluorescein phosphate as substrate preincubated for 3 mins followed by substrate addition.

For experiment [6], the target named is Tyrosine-protein phosphatase non-receptor type 6 (Homo sapiens, UniProt P29350). The experiment can be described thus: Inhibition of SHP1 (unknown origin) using 3-O-Methylfluorescein phosphate as substrate preincubated for 3 mins followed by substrate addition.
Chain of Tyrosine-protein phosphatase non-receptor type 6 (P29350 whole entry): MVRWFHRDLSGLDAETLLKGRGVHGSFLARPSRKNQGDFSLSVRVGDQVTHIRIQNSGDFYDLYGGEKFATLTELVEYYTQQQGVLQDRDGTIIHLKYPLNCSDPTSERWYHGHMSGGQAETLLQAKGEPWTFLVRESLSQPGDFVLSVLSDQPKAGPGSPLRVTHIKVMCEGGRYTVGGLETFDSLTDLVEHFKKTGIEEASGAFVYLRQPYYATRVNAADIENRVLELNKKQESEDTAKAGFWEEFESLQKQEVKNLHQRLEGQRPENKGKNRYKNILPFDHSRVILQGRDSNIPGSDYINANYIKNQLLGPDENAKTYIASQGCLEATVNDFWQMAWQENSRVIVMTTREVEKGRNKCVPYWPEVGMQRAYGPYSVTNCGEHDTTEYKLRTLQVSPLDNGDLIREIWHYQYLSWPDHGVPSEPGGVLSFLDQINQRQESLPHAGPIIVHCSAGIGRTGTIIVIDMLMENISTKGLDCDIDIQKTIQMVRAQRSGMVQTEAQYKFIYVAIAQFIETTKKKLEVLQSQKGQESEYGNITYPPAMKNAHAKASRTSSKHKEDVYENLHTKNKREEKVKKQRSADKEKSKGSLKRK

Chain of Receptor-type tyrosine-protein phosphatase F (P10586 whole entry): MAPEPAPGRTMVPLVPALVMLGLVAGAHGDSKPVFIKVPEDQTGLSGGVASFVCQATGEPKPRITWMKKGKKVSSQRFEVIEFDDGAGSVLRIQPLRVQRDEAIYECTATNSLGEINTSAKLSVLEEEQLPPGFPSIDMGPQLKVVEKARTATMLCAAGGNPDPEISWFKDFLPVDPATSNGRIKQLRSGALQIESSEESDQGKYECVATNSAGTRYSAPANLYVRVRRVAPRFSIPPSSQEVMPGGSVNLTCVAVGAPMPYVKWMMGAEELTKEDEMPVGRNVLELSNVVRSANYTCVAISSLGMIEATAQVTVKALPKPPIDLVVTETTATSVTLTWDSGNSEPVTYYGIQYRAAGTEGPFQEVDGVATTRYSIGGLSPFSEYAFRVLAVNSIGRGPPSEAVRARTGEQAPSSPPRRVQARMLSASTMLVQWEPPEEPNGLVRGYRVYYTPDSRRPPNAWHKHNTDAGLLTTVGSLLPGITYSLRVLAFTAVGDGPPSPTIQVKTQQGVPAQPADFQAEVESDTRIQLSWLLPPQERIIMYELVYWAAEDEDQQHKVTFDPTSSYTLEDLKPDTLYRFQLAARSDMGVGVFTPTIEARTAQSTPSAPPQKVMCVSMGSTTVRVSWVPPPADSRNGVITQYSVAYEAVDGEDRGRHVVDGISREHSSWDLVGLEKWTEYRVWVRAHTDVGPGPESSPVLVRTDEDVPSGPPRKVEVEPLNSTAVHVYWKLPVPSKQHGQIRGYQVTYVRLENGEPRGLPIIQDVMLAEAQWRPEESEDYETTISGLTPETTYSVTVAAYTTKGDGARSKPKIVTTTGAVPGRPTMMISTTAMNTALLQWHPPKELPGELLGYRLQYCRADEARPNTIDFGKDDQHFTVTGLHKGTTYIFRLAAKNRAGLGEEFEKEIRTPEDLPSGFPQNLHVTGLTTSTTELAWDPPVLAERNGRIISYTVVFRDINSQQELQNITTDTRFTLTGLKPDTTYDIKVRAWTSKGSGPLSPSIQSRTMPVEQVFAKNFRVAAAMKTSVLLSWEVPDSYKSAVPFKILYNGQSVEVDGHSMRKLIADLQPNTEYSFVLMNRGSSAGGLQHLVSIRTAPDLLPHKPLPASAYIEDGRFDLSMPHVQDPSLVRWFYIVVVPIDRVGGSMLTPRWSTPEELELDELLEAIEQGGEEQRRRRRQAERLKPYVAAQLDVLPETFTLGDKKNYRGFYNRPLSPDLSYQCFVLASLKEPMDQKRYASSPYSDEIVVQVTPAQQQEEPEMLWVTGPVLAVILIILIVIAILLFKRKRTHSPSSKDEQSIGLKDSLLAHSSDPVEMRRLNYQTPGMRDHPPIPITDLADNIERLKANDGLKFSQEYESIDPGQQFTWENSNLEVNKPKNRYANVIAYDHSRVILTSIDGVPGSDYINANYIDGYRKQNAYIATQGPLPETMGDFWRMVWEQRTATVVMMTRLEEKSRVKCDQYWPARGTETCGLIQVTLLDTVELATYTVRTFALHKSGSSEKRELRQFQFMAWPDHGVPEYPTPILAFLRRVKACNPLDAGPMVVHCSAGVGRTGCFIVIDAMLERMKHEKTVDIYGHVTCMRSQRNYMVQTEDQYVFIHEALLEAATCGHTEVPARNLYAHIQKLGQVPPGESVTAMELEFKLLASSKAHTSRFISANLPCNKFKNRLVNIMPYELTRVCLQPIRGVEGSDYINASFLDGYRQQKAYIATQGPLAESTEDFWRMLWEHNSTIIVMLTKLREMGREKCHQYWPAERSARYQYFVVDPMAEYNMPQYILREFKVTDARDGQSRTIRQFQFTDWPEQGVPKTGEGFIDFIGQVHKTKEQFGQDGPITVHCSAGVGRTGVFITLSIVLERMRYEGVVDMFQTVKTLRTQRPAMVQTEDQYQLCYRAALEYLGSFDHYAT

`CCOC(=O)COC(=O)/C(C)=C\C(C)=C\c1csc([C@H](Cc2ccc(OCc3ccccc3)cc2)NC(=O)[C@H](Cc2c[nH]c3ccccc23)NC(=O)OC(C)(C)C)n1`: the 50% inhibitory concentration (IC50) (commonly the midpoint of a concentration-inhibition curve) in experiment [1] was determined as 5.6 µM.

`CCOC(=O)/C(C)=C\C(C)=C\c1csc([C@H](Cc2ccc(OCc3ccccc3)cc2)NC(=O)C2CCCC2)n1` had an IC50 in experiment [1] of 17.9 µM.

The compound `CCOC(=O)/C(C)=C\C(C)=C\c1csc([C@H](Cc2ccc(OCc3ccccc3)cc2)NC(=O)c2ccc(F)cc2)n1` came in with a half-maximal inhibitory concentration (IC50) in experiment [1] of 8.92 µM.

Take `CCOC(=O)/C(C)=C\c1csc([C@H](Cc2ccc(OCc3ccccc3)cc2)NC(=O)C2CCCCC2)n1`: in experiment [1], the IC50 was > 40 µM.

The compound `CCOC(=O)/C(C)=C\C(C)=C\c1csc([C@H](Cc2ccc(OCc3ccccc3)cc2)NC(=O)C2CC2)n1` returned a concentration for half-maximal inhibition (IC50) in experiment [1] of 19.9 µM. This lies in the double-digit micromolar range.

`CCOC(=O)CNC(=O)/C(C)=C\C(C)=C\c1csc(C(Cc2ccc(OCc3ccccc3)cc2)NC(=O)OC(C)(C)C)n1` (single isomer, unassigned): it took 12.4 µM to reach half-maximal inhibition in experiment [1] (IC50).

In the case of `C/C(=C/C(C)=C/c1csc([C@H](Cc2ccc(OCc3ccccc3)cc2)NC(=O)Cc2c[nH]c3ccccc23)n1)C(=O)OCC(=O)O`, the IC50 in experiment [1] was 3.68 µM; in experiment [2] it was 9.98 µM; in experiment [3], > 20 µM; in experiment [4] it was > 20 µM; in experiment [5] it was 4.88 µM; in experiment [6] it was > 20 µM.

With `CCOC(=O)c1csc([C@H](Cc2ccc(OCc3ccccc3)cc2)NC(=O)C2CCCCC2)n1`, the IC50 in experiment [1] is > 40 µM.

Consider `CCOC(=O)COC(=O)/C(C)=C\C(C)=C\c1csc([C@H](Cc2ccc(OCc3ccccc3)cc2)NC(=O)Cc2c[nH]c3ccccc23)n1`, for which the half-inhibitory concentration (IC50) in experiment [1] is 5.94 µM; in experiment [2], 14 µM; in experiment [3], > 20 µM; in experiment [4], > 20 µM; in experiment [5], 2.83 µM; in experiment [6], > 20 µM.

The compound `CCOC(=O)/C(C)=C/C(C)=C\c1csc([C@H](Cc2ccc(OCc3ccccc3)cc2)NC(=O)C2CCCCC2)n1` yielded an IC50 in experiment [1] of 23.9 µM.

Regarding `CCOC(=O)COC(=O)/C(C)=C\C(C)=C\c1csc([C@H](Cc2ccc(OCc3ccccc3)cc2)NC(=O)CCCc2c[nH]c3ccccc23)n1`, the IC50 in experiment [1] was 3.05 µM; in experiment [2], 12.7 µM; in experiment [3], > 20 µM; in experiment [4] it was > 20 µM; in experiment [5], 2.55 µM; in experiment [6] it was > 20 µM.

As to `COC(=O)CCNC(=O)/C(C)=C\C(C)=C\c1csc(C(Cc2ccc(OCc3ccccc3)cc2)NC(=O)OC(C)(C)C)n1` (single isomer, unassigned), 15.9 µM corresponded to half-maximal inhibition in experiment [1] (IC50).

In experiment [1], `CCOC(=O)/C(C)=C\C(C)=C/c1csc([C@H](Cc2ccc(OCc3ccccc3)cc2)NC(=O)C2CCCCC2)n1` gave a half-inhibitory concentration (IC50) of 13 µM. The IC50 values of the last two compounds are within 1.5-fold of each other.

Turning to `CCOC(=O)C(C)CC(C)Cc1csc([C@H](Cc2ccc(OCc3ccccc3)cc2)NC(=O)C2CCCCC2)n1` (stereo partly specified), in experiment [1], the concentration for half-maximal inhibition (IC50) is > 40 µM.

With `CCOC(=O)/C(C)=C\C(C)=C\c1csc([C@H](Cc2ccc(OCc3ccccc3)cc2)NC(=O)c2ccccc2)n1`, the IC50 in experiment [1] is > 36 µM.

In turn, `CCOC(=O)CCCOC(=O)/C(C)=C\C(C)=C\c1csc(C(Cc2ccc(OCc3ccccc3)cc2)NC(=O)OC(C)(C)C)n1` (single isomer, unassigned) gave a half-inhibitory concentration (IC50) in experiment [1] of 12.5 µM.

For `CCOC(=O)/C(C)=C\C(C)=C\c1csc([C@H](Cc2ccc(OCc3ccccc3)cc2)NC(=O)C2CCCCC2)n1`, the 50% inhibitory concentration (IC50) in experiment [1] was 9.32 µM; in experiment [2], 15.6 µM; in experiment [3], > 20 µM; in experiment [4], > 20 µM; in experiment [5], 3.92 µM; in experiment [6], > 20 µM.

Take `CCOC(=O)/C(C)=C\C(C)=C\c1csc([C@H](Cc2ccc(OCc3ccccc3)cc2)NC(=O)C(C)C)n1`: in experiment [1], the midpoint of inhibition, the IC50, lay at 16.1 µM.

In experiment [1], `CCOC(=O)/C(C)=C\C(C)=C\c1csc([C@H](Cc2ccc(OCc3ccccc3)cc2)NC(=O)c2cc3ccccc3s2)n1` displayed an IC50 of 9.44 µM. This IC50 is about 1.7-fold lower than that of the compound before.

On to `CCOC(=O)COC(=O)/C(C)=C\C(C)=C\c1csc(C(Cc2ccc(OCc3ccccc3)cc2)NC(=O)OC(C)(C)C)n1` (single isomer, unassigned), for which the concentration for half-maximal inhibition (IC50) in experiment [1] turned out to be 7.1 µM.

As for `CCOC(=O)COC(=O)/C(C)=C\C(C)=C\c1csc([C@H](Cc2ccc(OCc3ccccc3)cc2)NC(=O)CCc2c[nH]c3ccccc23)n1`, the IC50 in experiment [1] was 5.43 µM; in experiment [2], 12.8 µM; in experiment [3] it was > 20 µM; in experiment [4], > 20 µM; in experiment [5], 3.66 µM; in experiment [6], > 20 µM.

Compound `CCCCC(=O)N[C@@H](Cc1ccc(OCc2ccccc2)cc1)c1nc(/C=C(C)/C=C(/C)C(=O)OCC)cs1` displayed an IC50 in experiment [1] of 11.4 µM.

Consider `C=CCOC(=O)N[C@@H](COC(=O)/C(C)=C\C(C)=C\c1csc([C@H](Cc2ccc(OCc3ccccc3)cc2)NC(=O)OC(C)(C)C)n1)C(=O)N1CCC[C@H]1C(=O)OC(C)(C)C`, for which the IC50 is 4.42 µM in experiment [1] and 3.95 µM in experiment [2].

In the case of `CCOC(=O)COC(=O)/C(C)=C\C(C)=C\c1csc([C@H](Cc2ccc(OCc3ccccc3)cc2)NC(=O)[C@H](Cc2c[nH]c3ccccc23)NC(C)=O)n1`, the IC50 in experiment [1] was 2.08 µM; in experiment [2], 8.84 µM; in experiment [3] it was > 20 µM; in experiment [4], > 20 µM; in experiment [5] it was 2.4 µM; in experiment [6], > 20 µM.

For `CCOC(=O)/C(C)=C/C(C)=C/c1csc([C@H](Cc2ccc(OCc3ccccc3)cc2)NC(=O)C2CCCCC2)n1`, in experiment [1], the 50% inhibitory concentration (IC50) was 19 µM. This counts as double-digit micromolar.

`C/C(=C/C(C)=C/c1csc([C@H](Cc2ccc(OCc3ccccc3)cc2)NC(=O)[C@H](Cc2c[nH]c3ccccc23)NC(=O)OC(C)(C)C)n1)C(=O)OCC(=O)O`: the 50% inhibitory concentration (IC50) in experiment [1] was 1.6 µM; in experiment [2], 4.53 µM; in experiment [3] it was > 20 µM; in experiment [4] it was > 20 µM; in experiment [5], 3.38 µM; in experiment [6], > 20 µM.

Regarding `CCOC(=O)/C(C)=C\C(C)=C\c1csc([C@H](Cc2ccc(OCc3ccccc3)cc2)NC(=O)c2ccco2)n1`, the IC50 in experiment [1] amounted to 18 µM.

Turning to `CCOC(=O)/C(C)=C/c1csc([C@H](Cc2ccc(OCc3ccccc3)cc2)NC(=O)C2CCCCC2)n1`, in experiment [1], the IC50 is > 40 µM.

Consider `CC(=O)N[C@@H](Cc1c[nH]c2ccccc12)C(=O)N[C@@H](Cc1ccc(OCc2ccccc2)cc1)c1nc(/C=C(C)/C=C(/C)C(=O)OCC(=O)O)cs1`, for which the 50% inhibitory concentration (IC50) was 3.01 µM in experiment [1]; 17.7 µM in experiment [2]; > 20 µM in experiment [3]; > 20 µM in experiment [4]; 5.41 µM in experiment [5]; > 20 µM in experiment [6].

In experiment [1], `CCOC(=O)CCCCOC(=O)/C(C)=C\C(C)=C\c1csc(C(Cc2ccc(OCc3ccccc3)cc2)NC(=O)OC(C)(C)C)n1` (single isomer, unassigned) yielded an IC50 of 9.66 µM.
